Tested on: green algae
Conditions: after the pH of the water becomes 6.0 or more acidic on acid addition
Description: Experiments have also been carried out to add acid to suppress plankton.

Cl [hydrochloric acid]
growth of green algae in Dian Ci Lake water: totally inhibited

From patent US7632414B2, “Process for suppressing the growth of green algae in aqueous systems” (priority 2003, dated 2009)
